Experimental data published in patent publication US4223036A, “1-(1,3-Dioxolan-2-ylmethyl)-1H-1,2,4-triazoles” (Janssen Pharmaceutica N.V., priority 1979, dated 1980).

Assays:
Candida albicans [1] = assay: Activity against vaginal candidosis in rats (lowest oral dose active at the 14th day after infection); format: in vivo, Female Wistar rats; set-up: lowest effective oral dose (vaginal candidosis in rats): unit not given here; conditions: oral once a day for two days, active at 14th day after infection; for lowest effective oral dose (vaginal candidosis in rats): Table I; for minimal effective dose: Candida albicans, 336 h
Experimental: Experiment A: Activity of Compounds (I) Against Vaginal Candidosis in Rats
Female Wistar rats of ±100 g body weight were used. They were ovariectomized and hysterectomized and after three weeks of recovery, 100 μg of oestradiol undecylate in sesame oil was given subcutaneously once a week for 3 consecutive weeks. The thus induced pseudooestrus was controlled by microscopic examination of vaginal smears. Food and water were left available ad libitum.
The rats were infected intravaginally with 8.10^5 cells of Candida albicans, grown on Sabouraud broth for 48 hours at 37° C. and diluted with saline. The date of infection varied from day +25 to day +32 after surgical intervention, depending on the appearance of signs of induced pseudo-oestrus.
The drugs under investigation were administered orally once a day for two days starting from the day of infection. For each experiment there were placebo treated controls. The results were assessed by taking vaginal smears with sterile swabs on several days after infection. The swabs were put into Sabouraud broth in petri-dishes and incubated for 48 hours a 37° C. If no growth of Candida albicans occured, i.e., when the animals were negative at the end of the experiment, this was due to drug administration because it never happened in placebo treated controls.
The Tables I, II and III below give the lowest oral dose of the drug under investigation which was found active at the 14th day after infection.

Candida albicans [2] = assay: Activity against crop candidosis in turkeys (dose whereby crops of 50% of animals were completely negative); format: in vivo; conditions: medicated feed for 13 consecutive days
Experimental: Experiment B: Activity of Compounds (I) Against Crop Candidosis in Turkeys
Turkeys of 14 days old were infected in the crop with 4.10^6 Candida albicans cells, grown on Sabouraud broth for 48 hours at 37° C. and diluted with saline. The volume of the inoculum was 1 ml. The drug under investigation were premixed in 500 mg of lacton and thereafter admixed in 1000 g of meal without any additives. The concentration of the drug under investigation in the meal was expressed in mg/kg.
The animals were given the medicated feed for 13 consecutive days starting on the day of infection. At the end of the experiment all animals were sacrificed. At autopsy the crops were removed, emptied and grinded in an ultra-turrax mixer in 15 ml of sterile saline. Colony counting was done on Sabouraud agar and the results given in the Tables I, II and III represent the ED50, i.e., the dose of the drug whereby the crops of 50% of the animals were completely negative for Candida albicans.

Row | Compound | lowest effective oral dose (vaginal candidosis in rats) (Candida albicans [1]) | ED50 (crop candidosis in turkeys) (Candida albicans [2]; Table I) | other results
1 | O=C(Nc1ccc(OC[C@H]2CO[C@](Cn3ccnc3)(c3ccc(Cl)cc3Cl)O2)cc1)c1ccc(Br)cc1 (relative stereo) | 10 | 31 mg/kg of feed | 
2 | COc1ccc(C(=O)Nc2ccc(OC[C@H]3CO[C@](Cn4ccnc4)(c4ccc(Cl)cc4Cl)O3)cc2)cc1 (relative stereo) | 40 | 16 mg/kg of feed | 
3 | O=C(Nc1ccc(OC[C@H]2CO[C@](Cn3ccnc3)(c3ccc(Cl)cc3Cl)O2)cc1)Oc1ccccc1 (relative stereo) | 10 | 125 mg/kg of feed | 
4 | Clc1ccc([C@@]2(Cn3ccnc3)OC[C@H](COc3ccc(N4CCOCC4)cc3)O2)c(Cl)c1 (relative stereo) | 2.5 | 16 mg/kg of feed | 
5 | Clc1ccc([C@@]2(Cn3ccnc3)OC[C@H](COc3ccc(N4CCNCC4)cc3)O2)c(Cl)c1 (relative stereo) | 5 | 125 mg/kg of feed | 
6 | CC(=O)N1CCN(c2ccc(OC[C@H]3CO[C@](Cn4ccnc4)(c4ccc(Cl)cc4Cl)O3)cc2)CC1 (relative stereo) | 2.5 | 8 mg/kg of feed | 
7 | CC(=O)Nc1cccc(OC[C@H]2CO[C@](Cn3ccnc3)(c3ccc(Cl)cc3Cl)O2)c1 (relative stereo) [3 (NHCOCH3), cis-N-{3-[2-(2,4-dichlorophenyl)-2-(1H-imidazol-1-ylmethyl)-1,3-dioxolan-4-ylmethoxy]phenyl}acetamide nitrate] |  |  | minimal effective dose (Candida albicans [1]; Table III): 10 mg/kg; ED50 (crop candidosis in turkeys) (Candida albicans [2]; Table III): 63 mg/kg of feed
8 | CC(C)CN1CCN(c2ccc(OC[C@H]3CO[C@](Cn4cncn4)(c4ccc(Cl)cc4Cl)O3)cc2)CC1 (relative stereo) [CH2CH(CH3)2] |  |  | minimal effective dose (Candida albicans [1]; Table II): 2.5 mg/kg; ED50 (crop candidosis in turkeys) (Candida albicans [2]; Table II): 31 mg/kg of feed
9 | CN1CCN(c2ccc(OC[C@H]3CO[C@](Cn4cncn4)(c4ccc(Cl)cc4Cl)O3)cc2)CC1 (relative stereo) [CH3] |  |  | minimal effective dose (Candida albicans [1]; Table II): 1.25 mg/kg; ED50 (crop candidosis in turkeys) (Candida albicans [2]; Table II): 16 mg/kg of feed
10 | CCC(C)N1CCN(c2ccc(OC[C@H]3CO[C@](Cn4cncn4)(c4ccc(Cl)cc4Cl)O3)cc2)CC1 (relative stereo) [CH(CH3)CH2CH3] |  |  | minimal effective dose (Candida albicans [1]; Table II): 2.5 mg/kg; ED50 (crop candidosis in turkeys) (Candida albicans [2]; Table II): 63 mg/kg of feed
11 | O=CN1CCN(c2ccc(OC[C@H]3CO[C@](Cn4cncn4)(c4ccc(Cl)cc4Cl)O3)cc2)CC1 (relative stereo) [CHO, cis-4-{4-[2-(2,4-dichlorophenyl)-2-(1H-1,2,4-triazol-1-ylmethyl)-1,3-dioxolan-4-ylmethoxy]phenyl}-1-piperazinecarboxaldehyde] |  |  | minimal effective dose (Candida albicans [1]; Table II): 1.25 mg/kg; ED50 (crop candidosis in turkeys) (Candida albicans [2]; Table II): 16 mg/kg of feed
12 | CC(=O)N1CCN(c2ccc(OC[C@H]3CO[C@](Cn4cncn4)(c4ccc(Cl)cc4Cl)O3)cc2)CC1 (relative stereo) [COCH3, cis-1-acetyl-4-{4-[2-(2,4-dichlorophenyl)-2-(1H-1,2,4-triazol-1-ylmethyl)-1,3-dioxolan-4-yl-methoxy]phenyl}piperazine] |  |  | minimal effective dose (Candida albicans [1]; Table II): 1.25 mg/kg; ED50 (crop candidosis in turkeys) (Candida albicans [2]; Table II): 8 mg/kg of feed
13 | Nc1ccc(OC[C@H]2CO[C@](Cn3ccnc3)(c3ccc(Cl)cc3Cl)O2)cc1[N+](=O)[O-] (relative stereo) [Example 4-NH2, cis-4-[2-(2,4-dichlorophenyl)-2-(1H-imidazol-1-ylmethyl)-1,3-dioxolan-4-ylmethoxy]-2-nitrobenzenamine] |  |  | minimal effective dose (Candida albicans [1]; Table III): 5 mg/kg; ED50 (crop candidosis in turkeys) (Candida albicans [2]; Table III): 31 mg/kg of feed
14 | S=C=Nc1ccc(OC[C@H]2CO[C@](Cn3ccnc3)(c3ccc(Cl)cc3Cl)O2)cc1 (relative stereo) [NCS, cis-1-[2-(2,4-dichlorophenyl)-4-(4-isothiocyanatophenoxymethyl)-1,3-dioxolan-2-ylmethyl]-1H-imidazole] | 5 | 125 mg/kg of feed | 
15 | Nc1ccc(OC[C@H]2CO[C@](Cn3ccnc3)(c3ccc(Cl)cc3Cl)O2)cc1 (relative stereo) [NH2, cis-4-[2-(2,4-dichlorophenyl)-2-(1H-imidazol-1-ylmethyl)-1,3-dioxolan-4-ylmethoxy]benzenamine] | 5 | 125 mg/kg of feed | 
16 | CCNc1ccc(OC[C@H]2CO[C@](Cn3ccnc3)(c3ccc(Cl)cc3Cl)O2)cc1 (relative stereo) [NHCH2CH3, cis-4-[2-(2,4-dichlorophenyl)-2-(1H-imidazol-1-ylmethyl)-1,3-dioxolan-4-ylmethoxy]-N-ethylbenzenamine] | 2.5 | 31 mg/kg of feed | 
17 | O=CNc1ccc(OC[C@H]2CO[C@](Cn3ccnc3)(c3ccc(Cl)cc3Cl)O2)cc1 (relative stereo) [NHCHO, cis-N-{4-[2-(2,4-dichlorophenyl)-2-(1H-imidazol-1-yl-methyl)-1,3-dioxolan-4-ylmethoxy]phenyl}formamide] | 2.5 | 31 mg/kg of feed | 
18 | CCC(=O)Nc1ccc(OC[C@H]2CO[C@](Cn3ccnc3)(c3ccc(Cl)cc3Cl)O2)cc1 (relative stereo) [NHCOC2 H5, cis-N-{4-[2-(2,4-dichlorophenyl)-2-(1H-imidazol-1-ylmethyl)-1,3-dioxolan-4-ylmethoxy]phenyl}propanaide ethanedioate. 2-propanolate] | 10 | 31 mg/kg of feed | 
19 | CC(=O)Nc1ccc(OC[C@H]2CO[C@](Cn3ccnc3)(c3ccc(Cl)cc3Cl)O2)cc1 (relative stereo) [NHCOCH3, cis-N-{4-[2-(2,4-dichlorophenyl)-2-(1H-imidazol-1-ylmethyl)-1,3-dioxolan-4-ylmethoxy]phenyl}acetamide] | 5 | 31 mg/kg of feed | 
20 | O=C(Nc1ccc(OC[C@H]2CO[C@](Cn3ccnc3)(c3ccc(Cl)cc3Cl)O2)cc1)C(Cl)Cl (relative stereo) [NHCOCH(Cl)2, cis-2,2-dichloro-N-{4-[2-(2,4-dichlorophenyl)-2-(1H-imidazol-1-ylmethyl)-1,3-dioxolan-4-ylmethoxy]phenyl}acetamide] | 10 | 125 mg/kg of feed | 
21 | CCNC(=O)Nc1ccc(OC[C@H]2CO[C@](Cn3ccnc3)(c3ccc(Cl)cc3Cl)O2)cc1 (relative stereo) [NHCONHC2 H5, cis-N-{4-[2-(2,4-dichlorophenyl)-2-(1H-imidazol-1-ylmethyl)-1,3-dioxolan-4-ylmethoxy]phenyl}-N'-ethylurea] | 10 | 125 mg/kg of feed | 
22 | CNC(=O)Nc1ccc(OC[C@H]2CO[C@](Cn3ccnc3)(c3ccc(Cl)cc3Cl)O2)cc1 (relative stereo) [NHCONHCH3, cis-N-{4-[2-(2,4-dichlorophenyl)-2-(1H-imidazol-1-ylmethyl)-1,3-dioxolan-4-ylmethoxy]phenyl}-N'-methylurea] | 10 | 125 mg/kg of feed | 
23 | CCOC(=O)Nc1ccc(OC[C@H]2CO[C@](Cn3ccnc3)(c3ccc(Cl)cc3Cl)O2)cc1 (relative stereo) [NHCOOC2 H5, cis-ethyl {4-[2-(2,4-dichlorophenyl)-2-(1H-imidazol-1-ylmethyl)-1,3-dioxolan-4-ylmethoxy]phenyl}carbamate] | 5 | 16 mg/kg of feed | 
24 | COC(=O)Nc1ccc(OC[C@H]2CO[C@](Cn3ccnc3)(c3ccc(Cl)cc3Cl)O2)cc1 (relative stereo) [NHCOOCH3, cis-methyl {4-[2-(2,4-dichlorophenyl)-2-(1H-imidazol-1-ylmethyl-1,3-dioxolan-4-ylmethoxy]phenyl}-carbamate nitrate] | 5 | 31 mg/kg of feed | 
25 | CCNC(=S)Nc1ccc(OC[C@H]2CO[C@](Cn3ccnc3)(c3ccc(Cl)cc3Cl)O2)cc1 (relative stereo) [NHCSNHC2 H5, cis-N-{4-[2-(2,4-dichlorophenyl)-2-(1H-imidazol-1-ylmethyl)-1,3-dioxolan-4-ylmethoxy]phenyl}-N'-ethylthiourea] | 5 | 125 mg/kg of feed | 
